Assay results as given in ChEMBL document CHEMBL1134870, “Design and synthesis of novel inhibitors of gelatinase B” (Bioorg Med Chem Lett, 2002).

Biological target: Matrix metalloproteinase-9 (Mus musculus, UniProt P41245)
Experiment: Inhibitory concentration was determined against murine gelatinase B

Chain of Matrix metalloproteinase-9 (P41245 whole entry): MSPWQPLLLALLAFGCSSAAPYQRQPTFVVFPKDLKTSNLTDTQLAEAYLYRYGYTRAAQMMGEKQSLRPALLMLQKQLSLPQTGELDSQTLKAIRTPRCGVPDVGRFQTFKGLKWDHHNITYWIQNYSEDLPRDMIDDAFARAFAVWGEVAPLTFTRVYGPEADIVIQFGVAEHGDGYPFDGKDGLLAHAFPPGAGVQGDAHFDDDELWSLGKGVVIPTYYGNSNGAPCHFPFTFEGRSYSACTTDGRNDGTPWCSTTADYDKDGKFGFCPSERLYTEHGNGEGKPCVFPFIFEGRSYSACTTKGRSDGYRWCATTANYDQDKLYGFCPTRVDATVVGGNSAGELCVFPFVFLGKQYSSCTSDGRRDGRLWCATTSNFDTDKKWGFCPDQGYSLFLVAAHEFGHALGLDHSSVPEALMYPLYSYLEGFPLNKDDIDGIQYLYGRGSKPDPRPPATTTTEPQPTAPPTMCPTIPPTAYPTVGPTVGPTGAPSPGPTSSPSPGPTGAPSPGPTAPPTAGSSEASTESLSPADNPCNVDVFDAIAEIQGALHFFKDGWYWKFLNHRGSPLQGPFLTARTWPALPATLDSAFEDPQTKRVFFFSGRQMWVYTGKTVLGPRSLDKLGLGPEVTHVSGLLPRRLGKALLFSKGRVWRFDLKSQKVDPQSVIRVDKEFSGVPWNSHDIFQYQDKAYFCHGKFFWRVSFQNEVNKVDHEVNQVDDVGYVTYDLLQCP

Point of comparison: `NCc1nc2ccc(NCC3CC=CCC3)cc2[nH]1` (centres undefined), IC50 92 µM. Against it:
- NCc1nc2ccc(NC(=O)c3ccccc3OCc3ccccc3)cc2[nH]1 — 1.9-fold lower, 48 µM
- NCc1nc2cc(NC(=O)/C=C/c3cccnc3)ccc2[nH]1 — within 1.5-fold, 85 µM
- CC(=O)N(Cc1ccccc1OCc1ccccc1)c1ccc2nc(CN)[nH]c2c1 — within 1.5-fold, 83 µM
- NCc1nc2ccc(NC(=O)c3ccc(C(=O)c4ccccc4)cc3)cc2[nH]1 — 2-fold lower, 46 µM
- CC(=O)NCc1nc2ccc(NCc3ccccc3OCc3ccccc3)cc2[nH]1 — higher, > 100 µM
- NCc1nc2cc(N)ccc2[nH]1 — higher, > 500 µM
- NCc1nc2ccc(NCc3ccccc3)cc2[nH]1 — 2.1-fold higher, 195 µM
- NCc1nc2cc(NC(=O)/C=C/c3c(F)cccc3F)ccc2[nH]1 — within 1.5-fold, 75 µM
- NCc1nc2ccc(NCc3ccccc3Sc3ccccc3)cc2[nH]1 — 1.6-fold lower, 56 µM
- NCc1nc2ccc(NCc3ccccc3OCc3ccccc3)cc2[nH]1 — 7.1-fold lower, 13 µM
- OCc1nc2cc(NCc3ccccc3OCc3ccccc3)ccc2[nH]1 — higher, > 100 µM
- NCc1cc2cc(NCc3ccccc3OCc3ccccc3)ccc2[nH]1 — within 1.5-fold, 72 µM
- NCc1nc2ccc(NCc3ccc(OCc4ccccc4)cc3)cc2[nH]1 — 1.8-fold lower, 51 µM
- Cc1nc2cc(NCc3ccccc3OCc3ccccc3)ccc2[nH]1 — higher, > 300 µM

Biological target: Matrix metalloproteinase-9 (Mus musculus) (UniProt P41245)
Sequence (P41245 whole entry): as above
Experiment: Inhibitory activity against murine gelatinase B at 5 mM was determined

Point of comparison: `NCc1nc2ccccc2[nH]1`, inhibition 65%. Against it:
- CC(=O)Nc1nc(C)cs1 — lower, < 5%
- NCCc1ccccn1 — lower, < 5%
- OCc1nc2ccccc2s1 — higher, 85%
- O=C(O)c1ccccc1 — lower, < 5%
- Oc1ccccn1 — lower, < 5%
- CC(=O)C1CCCC1=O (centres undefined) — higher, 76%
- CCNCCN — lower, < 5%
- OCc1nc2ccccc2[nH]1 — lower, 26%
- CC(=O)NO — lower, < 5%
- Nc1ccccc1N — lower, 10%
- NCCNCCN — lower, < 5%
- NCc1ccccn1 — higher, 75%
- NCCN — lower, < 5%
